Test results reported in PMC6520732, “Exploring the Antiangiogenic Potential of Solomonamide A Bioactive Precursors: In Vitro and In Vivo Evidences of the Inhibitory Activity of Solo F-OH During Angiogenesis” (Marine Drugs, 2019).
≈ marks a conversion by molar mass, not a printed value. Where two headings read alike, the source gives them in different places.

Columns and labels:
CAM of chicken embryos = details: 48 h; for Positive/Total: methylcellulose disc
Protocol: Fertilized chick eggs were incubated horizontally at 38 °C in a humidified incubator, windowed by day 3 of incubation, and processed by day 8. […] Then, methylcellulose discs were implanted onto the CAM, and the eggs were sealed with adhesive tape and returned to the incubator for 48 h. Negative controls were always made with DMSO mixed with the methylcellulose, and aeroplysinin-1 (3 nmol/CAM) was used as a routine positive control of antiangiogenic compound [47]. After the incubation, the CAM was examined under a stereomicroscope and photographed with a Nikon DS-Ri2 camera. The results were analyzed by two different observers, and the assay was scored positive when both of them reported a significant reduction of vessels in the treated area.

BAEC invasion = assay: Cell invasion assay on Matrigel-coated transwells; type: cell-based, bovine; details: 20% FBS in lower chamber, 16 h, read-out: Concentration reaching 50% of inhibition of BAEC invasion
Protocol: The invasion of endothelial cells was assayed by using 8.0-μm pore size transwell inserts coated with 100 µL of Matrigel 0.12 mg/mL solution. 10^5 BAE cells, in the absence or presence of the indicated concentrations of Solo F–OH, were added to the upper chamber of the transwells in the absence of serum, and the lower chamber was filled with 20% FBS DMEM. After 16 h of incubation, invading cells were fixed in 4% paraformaldehyde and stained with a 1% crystal violet solution in 2% ethanol. Cells were photographed with a microscope camera Nikon DS-Ri2 coupled to a Nikon Eclipse Ti microscope (Nikon, Tokyo, Japan).

[1] = test system: bovine aortic endothelial cells (BAEC); details: 72 h of treatment, proliferating conditions; ref [17]; cited from earlier work
Source text: Table 1 Summary of the results obtained in the primary in vitro screening assays for the complete series of synthetic solomonamide precursors. BAEC: bovine aortic endothelial cells, MIC: minimum inhibitory concentration. | column: IC50 ^1 (μM) in BAEC [17]

ERK1/2 = assay: Western blot of ERK1/2 phosphorylation in serum-induced BAEC; type: cell-based, bovine; details: 20 μM, 1 h treatment of starved BAEC, then 10% FBS for 10 min, two independent experiments
Protocol: (§1) BAE cells were starved in serum-free for 16 h. After one-hour treatment with Solo F-OH at 10 and 20 μM in the same conditions, cells were induced with 10% of FBS for 10 min. Protein lysates were obtained in radioimmunoprecipitation assay buffer (RIPA) (50 mM of Tris, pH 7.4, 150 mM of NaCl, 1% Triton X-100, 0.25% sodium deoxycholate, 1 mM of EDTA) containing phosphatase activity inhibitors (30 mM of sodium fluoride, 1 mM of sodium orthovanadate, 30 mM of β-glycerophosphate) and protease activity inhibitors (Complete mini, Roche, Mannheim, Germany). Protein concentration was determined using the Lowry method. Samples were subjected to SDS-PAGE electrophoresis and transferred to nitrocellulose membranes. […] Following one hour of incubation with horseradish peroxidase-conjugated secondary antibodies (MERK; goat anti-rabbit IgG HRP Linked Whole Antibody #NA934V; goat anti-mouse IgG (whole molecule)–Peroxidase antibody #A4416) at room temperature, immunoreactive bands were detected with SuperSignal West Pico Chemiluminescent Substrate (Pierce, Rockford, USA) and quantified by ImageJ software. The phosphorylated/total protein ratios were expressed as the percentage of the ratio in serum-stimulated samples in the absence of Solo F–OH.

MMP-2 [2] = assay: Gelatin zymography of conditioned media and cell extracts of treated BAEC; type: cell-based, bovine; details: 20 μM, 24 h
Protocol: (§2) Zymographies for matrix metalloproteinases MMP-2 and MMP-9 activities were performed in both conditioned media and cellular extracts of endothelial (BAEC) and tumor (HT1080) cell lines as described in Fajardo et al.. Briefly, cells seeded in six-well plates were incubated in serum-free culture medium with 0.1% BSA containing 200 KIU of aprotinin/mL and the correspondent treatment. After 24 h of incubation, conditioned media were collected, and cell lysates were obtained. Duplicates were used to determine the cell number, and samples were normalized for equal loading. In order to detect the gelatinolytic activity of MMP-9 and MMP-2, samples were loaded in non-reducing SDS/PAGE gels containing gelatin (1 mg/mL). After electrophoresis, gels were incubated overnight at 37 °C in a substrate buffer (50 mM of Tris/HCl, pH 7.4, supplemented with 1% Triton X-100, 5 mM CaCl2, and 0.02% Na3N) and stained with Coomassie blue R-250. The bands of gelatinase activity could be detected as non-stained bands in a dark, stained background. The size and intensity of the bands were quantified using Image J software.

MMP-9 = assay: Gelatin zymography of conditioned media and cell extracts of treated HT1080; type: cell-based, human; details: treated HT1080, 24 h
Protocol: as §2

MMP-2 [3] = assay: as above; type: cell-based, human; details: treated HT1080, 24 h
Protocol: as §2

[4] = test system: already formed BAEC tubular-like structures; assay: Vascular disruption assay in vitro (already formed tubular-like structures on Matrigel); type: cell-based, bovine; details: 90 min; even at a concentration 10-fold higher than the MIC of the tube formation assay
Protocol: (§3) Cellular suspensions of 5 × 10^4 BAE cells in serum-free DMEM were added to a 96-well plate coated with 50 µL of Matrigel (10.5 mg/mL) in the presence of the indicated treatments for 5 h and photographed with a microscope camera Nikon DS-Ri2 coupled to a Nikon Eclipse Ti microscope (Nikon, Tokyo, Japan). Each concentration was tested in duplicate, and staurosporine 2 µM was used as a routine positive assay control. For the disruption assay, tubular-like structures were formed following the same protocol for the control conditions; then, the indicated concentrations of Solo F–OH were added. After a further incubation time of 90 min, cultures were observed and photographed. Combretastatin-4-phosphate (CA4P) was used as positive control of the disruptor antiangiogenic drug.

[5] = test system: subintestinal vessels (SIVs) of zebrafish embryos; assay: FGF-2 induced angiogenesis zebrafish yolk membrane (ZFYM) assay; type: in vivo, zebrafish (Danio rerio); details: FGF-2 2 ng, 24 h
Akt = assay: Western blot of Akt phosphorylation in serum-induced BAEC; type: cell-based, bovine; details: 20 μM, 1 h treatment of starved BAEC, then 10% FBS for 10 min, two independent experiments
Protocol: as §1

[6] = test system: BAEC endothelial tubular-like structures formation; type: cell-based, bovine; details: 5 h
Protocol: as §3

MMP-2 [7] = biological target: T1, MMP-2 (Bos taurus, UniProt Q9GLE5); assay: In situ inhibition of MMP-2 gelatinase activity (compound in zymography incubation buffer); type: biochemical, bovine; details: 20 μM in substrate buffer; conditioned media of untreated BAEC
T1 construct: conditioned media and cellular extracts of endothelial (BAEC) and tumor (HT1080) cell lines; endogenous in cells; host or cells: BAEC (bovine aortic endothelial cells)
T1 sequence (Q9GLE5 111-661): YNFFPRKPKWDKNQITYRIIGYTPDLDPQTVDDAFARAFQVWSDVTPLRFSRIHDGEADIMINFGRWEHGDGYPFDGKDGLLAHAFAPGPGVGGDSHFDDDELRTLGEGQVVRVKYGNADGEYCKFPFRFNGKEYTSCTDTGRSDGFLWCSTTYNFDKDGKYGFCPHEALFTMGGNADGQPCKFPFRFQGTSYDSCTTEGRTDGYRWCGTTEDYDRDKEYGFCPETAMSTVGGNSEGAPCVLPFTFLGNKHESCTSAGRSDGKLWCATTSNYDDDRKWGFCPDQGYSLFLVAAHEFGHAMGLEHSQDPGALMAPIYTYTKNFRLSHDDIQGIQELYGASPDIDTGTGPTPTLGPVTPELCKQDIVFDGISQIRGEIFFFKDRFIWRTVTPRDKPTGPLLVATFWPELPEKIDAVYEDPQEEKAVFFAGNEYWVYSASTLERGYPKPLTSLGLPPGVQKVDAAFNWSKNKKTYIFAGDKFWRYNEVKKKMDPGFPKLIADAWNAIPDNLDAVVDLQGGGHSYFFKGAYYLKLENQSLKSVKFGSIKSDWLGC
Protocol: A variant of this method was used to obtain complementary information about the direct inhibition of the tested compound on MMP-2 gelatinase activity: samples of conditioned media of untreated BAEC were subjected to gelatin zymography and, after electrophoresis, 20 μM of Solo F–OH was added to the substrate buffer. Detection of the degrading bands and quantification were performed as described above.

human recombinant VEGFR2 = human recombinant VEGFR2 (Homo sapiens, UniProt P35968); assay: In vitro measure of VEGFR2 TK activity (luminescent VEGFR2 (KDR) Kinase Assay Kit); details: 20 μM, 45 min at 30 °C; mean ± SD of four independent measures
Sequence of human recombinant VEGFR2 (P35968 20-1356): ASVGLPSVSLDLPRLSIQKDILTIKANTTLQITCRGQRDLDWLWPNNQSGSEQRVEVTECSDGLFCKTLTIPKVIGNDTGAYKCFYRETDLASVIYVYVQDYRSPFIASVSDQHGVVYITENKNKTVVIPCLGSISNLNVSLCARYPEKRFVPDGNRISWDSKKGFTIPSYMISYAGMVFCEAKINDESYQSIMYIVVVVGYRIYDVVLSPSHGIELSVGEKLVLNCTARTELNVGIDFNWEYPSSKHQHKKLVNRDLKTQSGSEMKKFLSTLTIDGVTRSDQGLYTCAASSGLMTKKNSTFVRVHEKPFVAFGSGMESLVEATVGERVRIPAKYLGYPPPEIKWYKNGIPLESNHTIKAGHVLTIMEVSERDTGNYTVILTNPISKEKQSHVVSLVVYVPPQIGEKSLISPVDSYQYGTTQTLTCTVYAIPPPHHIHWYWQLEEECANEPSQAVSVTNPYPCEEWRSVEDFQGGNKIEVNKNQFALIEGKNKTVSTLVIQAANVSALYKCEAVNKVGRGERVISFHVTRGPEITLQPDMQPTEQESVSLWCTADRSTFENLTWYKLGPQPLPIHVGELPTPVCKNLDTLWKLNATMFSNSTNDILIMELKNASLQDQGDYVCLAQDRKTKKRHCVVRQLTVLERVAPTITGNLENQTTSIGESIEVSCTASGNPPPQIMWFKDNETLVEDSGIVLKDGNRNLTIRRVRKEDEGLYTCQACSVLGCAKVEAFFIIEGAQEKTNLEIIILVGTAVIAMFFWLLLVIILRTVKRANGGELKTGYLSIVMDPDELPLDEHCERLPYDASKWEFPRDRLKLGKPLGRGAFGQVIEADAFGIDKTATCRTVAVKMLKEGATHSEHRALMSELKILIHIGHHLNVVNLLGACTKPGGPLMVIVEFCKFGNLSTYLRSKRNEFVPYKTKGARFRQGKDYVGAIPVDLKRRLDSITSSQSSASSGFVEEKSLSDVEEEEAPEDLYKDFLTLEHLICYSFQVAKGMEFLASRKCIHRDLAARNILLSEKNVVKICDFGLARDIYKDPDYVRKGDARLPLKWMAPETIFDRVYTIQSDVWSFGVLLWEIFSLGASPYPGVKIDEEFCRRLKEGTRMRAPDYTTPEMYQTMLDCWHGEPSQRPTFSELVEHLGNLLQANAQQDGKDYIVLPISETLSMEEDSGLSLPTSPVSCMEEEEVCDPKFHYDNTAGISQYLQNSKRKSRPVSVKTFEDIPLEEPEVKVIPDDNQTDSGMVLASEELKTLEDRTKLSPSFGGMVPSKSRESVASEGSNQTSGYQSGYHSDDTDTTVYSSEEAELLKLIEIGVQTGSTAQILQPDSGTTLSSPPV

C[C@@H]1C(=O)NCC(=O)N[C@H](C)C(=O)Nc2cc(OCc3ccccc3)ccc2/C=C/C[C@@H]1O [Solo F–OH]
Positive/Total (CAM of chicken embryos; 0.1 nmol/CAM): 1/7 | Positive/Total (CAM of chicken embryos; 0.5 nmol/CAM): 2/7 | Positive/Total (CAM of chicken embryos; 1 nmol/CAM): 6/9 | Positive/Total (CAM of chicken embryos; 5 nmol/CAM): 9/12 | Positive/Total (CAM of chicken embryos; 10 nmol/CAM): 10/10 | Dose reaching 50% of inhibition of CAM neovascularization (CAM of chicken embryos; CAM assay): lower than 1 nmol/CAM | IC50 (BAEC invasion): ~5 µM | IC50 [1]: 18.1 ± 2.2 µM | Phosphorylation of ERK1/2 in the presence of serum (ERK1/2): substantially reduced | Presence of MMP-2 in cell extracts and conditioned media of BAEC (MMP-2 [2]): reduced | MMP-9 activity in HT1080 cells (MMP-9): decreased | MMP-2 activity in HT1080 cells (MMP-2 [3]): decreased | Disruption of endothelial tubular-like structures already formed on Matrigel [4]: not able to disrupt | Score + / Total (mild response), % ([5]; compound 5 µM): 36.8% | Score + / Total (mild response), embryos ([5]; compound 5 µM): 7/19 | Score ++ / Total (strong response), % ([5]; compound 5 µM): 15.8% | Score ++ / Total (strong response), embryos ([5]; compound 5 µM): 3/19 | Score – / Total (no response to FGF-2), % ([5]; compound 5 µM): 47.4% | Score – / Total (no response to FGF-2), embryos ([5]; compound 5 µM): 9/19 | Score + / Total (mild response), % ([5]; compound 10 µM): 39.1% | Score + / Total (mild response), embryos ([5]; compound 10 µM): 9/23 | Score ++ / Total (strong response), % ([5]; compound 10 µM): 4.3% | Score ++ / Total (strong response), embryos ([5]; compound 10 µM): 1/23 | Score – / Total (no response to FGF-2), % ([5]; compound 10 µM): 56.5% | Score – / Total (no response to FGF-2), embryos ([5]; compound 10 µM): 13/23 | Phosphorylation of Akt in the presence of serum (Akt): substantially reduced | MIC Tubular Like-Structures Formation [6]: 1 µM (≈ 0.452 µg/mL) | MMP-2 degradation bands with compound in incubation buffer (MMP-2 [7]): unaffected | Remaining VEGFR2 kinase activity relative to vehicle control (DMSO) (human recombinant VEGFR2): 84.5 ± 3.3%

C[C@H]1NC(=O)CNC(=O)CC/C=C/Cc2ccccc2NC1=O [Solo-1]
IC50 [1]: > 100 µM | MIC Tubular Like-Structures Formation [6]: >50 µM

C[C@H]1NC(=O)CNC(=O)CC/C=C/Cc2ccc(OCc3ccccc3)cc2NC1=O [Solo-2]
IC50 [1]: 43.8 ± 1.2 µM | MIC Tubular Like-Structures Formation [6]: >50 µM

C[C@H]1NC(=O)CNC(=O)CCC/C=C/c2ccc(OCc3ccccc3)cc2NC1=O [Solo-4]
IC50 [1]: 69.6 ± 12.5 µM | MIC Tubular Like-Structures Formation [6]: 50 µM (≈ 21.1 µg/mL)

C[C@H]1NC(=O)CNC(=O)CC/C=C/Cc2ccc(O)cc2NC1=O [Solo-5]
IC50 [1]: > 100 µM | MIC Tubular Like-Structures Formation [6]: >50 µM

C[C@H]1NC(=O)CNC(=O)CC/C=C/C(O)c2ccccc2NC1=O (stereo partly drawn) [Solo-6]
IC50 [1]: > 100 µM | MIC Tubular Like-Structures Formation [6]: >50 µM
